{
  "source": "patent US20200165287A1",
  "about": "“SALT OF (SS)-ADENOSYL METHIONINE WITH INOSITOL HEXAPHOSPHATE, AND PROCESS FOR THE PREPARATION THEREOF” (GNOSIS S.p.A., priority 2017, published 2020)",
  "key": {"[1]": {"experiment": "accelerated stability test, thermostatic stove at +55° C., 5 days", "assay_type": "physicochemical", "experimental": "The product obtained as described in Example 6 (comprising SAMe and phytic acid) and a sample of SAMe inositol hexaphosphate obtained as described in Example 5 are subjected to an accelerated stability test, incubated in a thermostatic stove at +55° C., and the analyses are repeated after 5 days.\nThe samples are analysed for the following values: • SAMe ion content (total of all enantiomers) determined by HPLC and expressed as % by weight • enantiomeric purity, determined by HPLC and expressed as % of (SS) isomer • active ingredient content, calculated by multiplying the previous two values and expressed as % by weight of (SS)SAMe • overall purity, determined by HPLC as SAMe area/total area of chromatogram, expressed as area %. The figure comprises the values of all known degradation impurities."}, "[2]": {"experiment": "stability test, storage at +25° C. in a thermostatic stove", "assay_type": "physicochemical", "experimental": "Some samples of the products obtained as described in the previous examples are subjected to stability tests, storing them at +25° C., in a thermostatic stove.\nThe SAMe ion content analysis (FIG. 3) and the diastereomeric purity relative to the (SS) isomer (FIG. 4) are periodically repeated, and the result is compared with the starting value for the same sample, obtaining the results reported.\nThe data obtained with the product obtained according to EP 1896489 and two commercial samples of SAMe, 1,4-butanedisulphate salt (SD4 Test 1) and Pates salt (batch S1S1057B), are compared."}, "[3]": {"experiment": "Pharmacokinetic profile in the rat (SAMe plasma levels after oral administration by cannula)", "assay_type": "in vivo, Sprague Dawley rats", "conditions": "by cannula in water, 134 mg/kg and 95 mg/kg, equal SAMe ion dose, 0-24 h (FIG. 1, FIG. 2)", "experimental": "70 Sprague Dawley rats (35 male and 35 female), aged 7-9 weeks and weighing 176-200 g, were acclimatized in a cage for two weeks before the start of the treatment, maintained at +22° C. and 55% relative humidity. The rats were fed on 4RF 21 (Mucedola) feed, and weighed before the beginning and at the end of the test. At the time of treatment, 32 animals per group (16 males and 16 females) were selected from those with the most similar weights, and assigned to the two treatments.\nThe product was administered by cannula, dissolved in water, at two dose levels, namely 134 mg/kg and 95 mg/kg. The rats were fasted overnight before administration and for a further two hours after administration. The two equimolar doses guaranteed an equal intake of SAMe ion.\nThe blood levels of SAMe were assayed by taking a sample from the tail vein at fixed intervals, at times 0 (pre-administration), 0.5, 1, 1.5, 2, 4, 8 and 24 hours after administration. The blood samples were centrifuged after addition of EDTA to separate the plasma from the cell fraction. The plasma was then analysed by HPLC according to the method reported in Wise, Fullerton J. Liq. Chromatogr. […]\nThe SAMe plasma concentration values are also used to determine, according to the Area Under Curve (AUC) calculation, the total quantity of active ingredient absorbed, obtaining the values set out in FIG. 2."}},
  "data": [
    {"compound": "C[S@@+](CC[C@H](N)C(=O)[O-])C[C@H]1O[C@@H](n2cnc3c(N)ncnc32)[C@H](O)[C@@H]1O.O=P(O)(O)O[C@H]1[C@H](OP(=O)(O)O)[C@@H](OP(=O)(O)O)[C@H](OP(=O)(O)O)[C@@H](OP(=O)(O)O)[C@H]1OP(=O)(O)O", "note": "[AT1003, SAMe inositol hexaphosphate]", "values": [
      {"measurement": "Purity (% area), final value", "setting": "[1]; HPLC SAMe area/total area, after 5 days at +55° C.", "result": 90.0, "unit": "%"},
      {"measurement": "Purity (% area), starting value", "setting": "[1]; HPLC SAMe area/total area, starting value", "result": 95.98, "unit": "%"},
      {"measurement": "degradation by isomerization of (SS)SAMe after the stress test", "setting": "[1]; after 5 days at +55° C.", "result": "maintains an excess of the (SS)SAMe form"},
      {"measurement": "(SS)SAMe content (active ingredient, SAMe content x enantiomeric purity), final value", "setting": "[1]; after 5 days at +55° C., % by weight", "result": 21.28, "unit": "%"},
      {"measurement": "(SS)SAMe content (active ingredient, SAMe content x enantiomeric purity), starting value", "setting": "[1]; starting value, % by weight", "result": 26.59, "unit": "%"},
      {"measurement": "stability of (SS)SAMe isomer content / diastereomeric purity versus starting value (FIG. 4)", "setting": "[2]", "result": "stable for longer"}
    ]},
    {"compound": "C[S+](CC[C@H](N)C(=O)[O-])C[C@H]1O[C@@H](n2cnc3c(N)ncnc32)[C@H](O)[C@@H]1O.O=S(=O)(O)CCCCS(=O)(=O)O", "note": "(some centres unmarked) [SD4 Test 1, reference compound]", "values": [
      {"measurement": "stability of (SS)SAMe isomer content / diastereomeric purity versus starting value (FIG. 4)", "setting": "[2]", "result": "stable for longer"}
    ]},
    {"compound": "SAMe inositol hexaphosphate [SAMe IP6]", "values": [
      {"measurement": "absorption (AUC) and plasma concentration of SAMe versus SAMe Pates", "setting": "[3]", "result": "better absorption and a higher plasma concentration of active ingredient"}
    ]}
  ]
}
